Laboratory results taken from patent US20240116882A1, “NOVEL BENZOTRIAZOLE DERIVATIVE HAVING INHIBITORY ACTIVITY AGAINST ECTONUCLEOTIDE PYROPHOSPHATASE-PHOSPHODIESTERASE, AND USE THEREOF” (TXINNO BIOSCIENCE INC., priority 2021, published 2024).
Counter-ions that a name gives are not always drawn.

Target: T1, human recombinant ENPP1 enzymes (Homo sapiens, UniProt P22413)
T1 construct: purchased R & D systems
T1 sequence (P22413 1-925): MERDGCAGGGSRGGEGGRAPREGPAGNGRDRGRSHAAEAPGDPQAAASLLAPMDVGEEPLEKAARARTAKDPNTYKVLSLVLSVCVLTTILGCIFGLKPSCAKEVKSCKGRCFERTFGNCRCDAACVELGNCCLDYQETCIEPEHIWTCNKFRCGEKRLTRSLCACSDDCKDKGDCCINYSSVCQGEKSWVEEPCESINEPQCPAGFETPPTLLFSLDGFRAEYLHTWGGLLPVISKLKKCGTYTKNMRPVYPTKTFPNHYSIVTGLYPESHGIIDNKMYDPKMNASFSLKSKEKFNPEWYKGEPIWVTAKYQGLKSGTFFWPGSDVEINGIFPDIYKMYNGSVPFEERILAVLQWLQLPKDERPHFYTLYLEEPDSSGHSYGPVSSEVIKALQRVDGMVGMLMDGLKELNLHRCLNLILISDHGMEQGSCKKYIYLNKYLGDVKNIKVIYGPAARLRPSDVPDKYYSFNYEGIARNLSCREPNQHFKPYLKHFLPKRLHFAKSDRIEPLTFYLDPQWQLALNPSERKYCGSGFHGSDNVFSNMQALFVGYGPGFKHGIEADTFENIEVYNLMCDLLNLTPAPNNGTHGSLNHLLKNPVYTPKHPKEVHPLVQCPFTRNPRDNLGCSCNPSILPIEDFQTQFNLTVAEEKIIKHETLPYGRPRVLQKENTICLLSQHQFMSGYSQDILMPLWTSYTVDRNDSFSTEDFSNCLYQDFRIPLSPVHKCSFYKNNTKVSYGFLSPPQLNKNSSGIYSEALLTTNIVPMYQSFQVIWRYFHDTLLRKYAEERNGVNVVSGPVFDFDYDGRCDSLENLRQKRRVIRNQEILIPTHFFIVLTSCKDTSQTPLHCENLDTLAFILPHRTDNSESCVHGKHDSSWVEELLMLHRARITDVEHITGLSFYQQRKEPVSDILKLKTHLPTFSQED
Assay: ENPP1 Enzyme Assay with cGAMP Substrate (AMP-Glo)
Format: biochemical
Conditions: human recombinant ENPP1, cGAMP 5 μM, 37° C. 90 minutes, AMP-Glo luminescence; read-out: Enzymatic activity (IC50)
Procedure: ENPP1 hydrolyzes nucleotides or nucleotide derivatives to produce nucleoside-5′-monophosphate and pyrophosphate. In addition, ENPP1 hydrolyzes 2′,3′-cGAMP to produce 5′-adenosine monophosphate (AMP) and 5′-guanosine monophosphate (GMP). AMP produced from the reaction is measured using the AMP-Glo® kit (Promega). The AMP-Glo® kit contains two reagents. The first reagent terminates the AMP-producing enzymatic reaction, removes ATP and converts the produced AMP into ADP. The second reagent converts ADP into ATP which is used to generate luminescence in the luciferase reaction. The amount of luminescence measured is proportional to the amount of AMP produced by ENPP1.
The final reaction solution contains 50 mM Tris (pH 8.5) buffer, 250 mM NaCl, 0.5 mM CaCl2), 1 μM ZnCl2, 5% glycerol and 1% DMSO. Serially diluted ENPP1 inhibitors (typically in the range of 10 μM to 0.5 nM) were pre-stored with human recombinant ENPP1 enzymes (R & D systems) at 3 ng/reaction and room temperature (RT) for 5 to 10 minutes. The reaction was initiated by addition of cGAMP (at a final concentration of 5 μM) and reacted at 37° C. for 90 minutes. At the end of the reaction, 10 μl of the AMP-Glo first reagent was added to stop the reaction and the result was stored at room temperature for 1 hour. After storage, 20 μl of an AMP detection solution (a mixture of AMP-Glo II reagent and Kinase-Glo at a ratio of 1:100) was added and stored at room temperature for 1 hour. Luminescence signals were measured using a Victor® plate reader (Perkin Elmer). The maximal activity control (containing enzymes and substrates in the presence of 1% DMSO; MAX) and the minimal activity control (containing substrates and 1% DMSO; MIN) were evaluated simultaneously. In each experiment, serially diluted reference ENPP1 inhibitors were tested as well. IC50, indicating % residual activity versus compound concentration was determined by fitting inhibition curves using the 3-parameter analysis of GraphPad Prism® software. Serially diluted samples of one compound were tested two or more times and an average IC50 of each compound was calculated.

COc1ccc2c(c1)nnn2-c1ccc(CNS(N)(=O)=O)cc1 [Example 51, N-(4-(5-methoxy-1H-benzo[d][1,2,3]triazol-1-yl)benzyl)sulfamide Hydrochloride] and COc1ccc2nnn(-c3ccc(CNS(N)(=O)=O)cc3)c2c1 [Example 52, N-(4-(6-methoxy-H-benzo[d][1,2,3]triazol-1-yl)benzyl)sulfamide] cannot be ordered by IC50: less than 1 µM for the first, less than 1 µM for the second.

First: COc1cccc2nnn(-c3ccc(CNS(N)(=O)=O)cc3)c12 [Example 53, N-(4-(7-methoxy-1H-benzo[d][1,2,3]triazol-1-yl)benzyl)sulfamide]
Second: COc1cc2nnn(-c3ccc(CNS(N)(=O)=O)cc3)c2cc1C [Example 69, N-(4-(5-methoxy-6-methyl-1H-benzo[d][1,2,3]triazol-1-yl)benzyl)sulfamide]
The IC50 of the first is higher: greater than 10 µM for the first, 1 to 10 µM for the second. The second is the more potent here.

First: COc1cc(OC)c2nnn(-c3ccc(CNS(N)(=O)=O)cc3)c2c1 [Example 54, N-(4-(4,6-dimethoxy-1H-benzo[d][1,2,3]triazol-1-yl)benzyl)sulfamide]
Second: COc1cc2nnn(-c3ccc(CNS(N)(=O)=O)cc3)c2cc1OC [Example 55, N-(4-(5,6-dimethoxy-1H-benzo[d][1,2,3]triazol-1-yl)benzyl)sulfamide]
The IC50 of the first is higher: 1 to 10 µM for the first, less than 1 µM for the second.

NS(=O)(=O)NCc1ccc(-n2nnc3ccccc32)c(F)c1 [Example 56, N-(4-(1H-benzo[d][1,2,3]triazol-1-yl)-3-fluorobenzyl)sulfamide] and NS(=O)(=O)NCc1ccc(-n2nnc3cc(O)ccc32)c(F)c1 [Example 74, N-(3-fluoro-4-(5-hydroxy-1H-benzo[d][1,2,3]triazol-1-yl)benzyl)sulfamide] cannot be ordered by IC50: less than 1 µM for the first, less than 1 µM for the second.

NS(=O)(=O)NCc1ccc(-n2nnc3ccccc32)c(F)c1F [Example 57, N-(4-(1H-benzo[d][1,2,3]triazol-1-yl)-2,3-difluorobenzyl)sulfamide] and COc1ccc2c(c1)nnn2-c1ccc(CNS(N)(=O)=O)c(F)c1F [Example 65, N-(2,3-difluoro-4-(5-methoxy-1H-benzo[d][1,2,3]triazol-1-yl)-benzyl)sulfamide] cannot be ordered by IC50: less than 1 µM for the first, less than 1 µM for the second.

NS(=O)(=O)NCc1cc(F)c(-n2nnc3ccccc32)c(F)c1 [Example 58, N-(4-(1H-benzo[d][1,2,3]triazol-1-yl)-3,5-difluorobenzyl)sulfamide] and COc1ccc2c(c1)nnn2-c1c(F)cc(CNS(N)(=O)=O)cc1F [Example 64, N-(3,5-difluoro-4-(5-methoxy-1H-benzo[d][1,2,3]triazol-1-yl)-benzyl)sulfamide] cannot be ordered by IC50: less than 1 µM for the first, less than 1 µM for the second.

COc1ccc2c(c1)nnn2-c1ccc(CNS(N)(=O)=O)cc1Cl [Example 59, N-(3-chloro-4-(5-methoxy-1H-benzo[d][1,2,3]triazol-1-yl)benzyl)sulfamide] and COc1ccc2c(c1)nnn2-c1ccc(CNS(N)(=O)=O)cc1F [Example 61, N-(4-(5-methoxy-1H-benzo[d][1,2,3]triazol-1-yl)-3-fluorobenzyl)sulfamide] cannot be ordered by IC50: less than 1 µM for the first, less than 1 µM for the second.

COc1ccc2c(c1)nnn2-c1ccc(CNS(N)(=O)=O)c(F)c1 [Example 60, N-(2-fluoro-4-(5-methoxy-1H-benzo[d][1,2,3]triazol-1-yl)benzyl)sulfamide] and COc1ccc2c(c1)nnn2-c1ccc(CNS(N)(=O)=O)nc1 [Example 78] cannot be ordered by IC50: less than 1 µM for the first, less than 1 µM for the second.

First: COc1ccc2c(c1)nnn2-c1ccc(CNS(N)(=O)=O)cc1C [Example 66, N-(4-(5-methoxy-1H-benzo[d][1,2,3]triazol-1-yl)-3-methylbenzyl)sulfamide]
Second: COc1ccc2c(c1)nnn2-c1ccc(CNS(N)(=O)=O)cc1OC [Example 68, N-(3-methoxy-4-(5-methoxy-1H-benzo[d][1,2,3]triazol-1-yl)benzyl)sulfamide]
The IC50 of the first is lower: less than 1 µM for the first, 1 to 10 µM for the second.

COc1cc2nnn(-c3ccc(CNS(N)(=O)=O)cc3F)c2cc1C [Example 70, N-(3-fluoro-4-(5-methoxy-6-methyl-1H-benzo[d][1,2,3]triazol-1-yl)benzyl)sulfamide] and COc1cc2nnn(-c3ccc(CNS(N)(=O)=O)cc3F)c2cc1OC [Example 71, N-(4-(5,6-dimethoxy-1H-benzo[d][1,2,3]triazol-1-yl)-3-fluorobenzyl)sulfamide] cannot be ordered by IC50: less than 1 µM for the first, less than 1 µM for the second.

COc1ccc2c(c1)nnn2-c1cccc(CCNS(N)(=O)=O)c1 [Example 72, N-(3-(5-methoxy-1H-benzo[d][1,2,3]triazol-1-yl)phenethyl)sulfamide] and COc1ccc2c(c1)nnn2-c1ccc(CCNS(N)(=O)=O)cc1 [Example 73, N-(4-(5-methoxy-1H-benzo[d][1,2,3]triazol-1-yl)phenethyl)sulfamide Hydrochloride] cannot be ordered by IC50: less than 1 µM for the first, less than 1 µM for the second.

Cc1ccc2c(c1)nnn2-c1ccc(CNS(N)(=O)=O)cc1F [Example 75, N-(3-fluoro-4-(5-methyl-1H-benzo[d][1,2,3]triazol-1-yl)benzyl)sulfamide] and CCOc1ccc2c(c1)nnn2-c1ccc(CNS(N)(=O)=O)cc1F [Example 76, N-(4-(5-ethoxy-1H-benzo[d][1,2,3]triazol-1-yl)-3-fluorobenzyl)sulfamide] cannot be ordered by IC50: greater than 10 µM for the first, greater than 10 µM for the second.

Compared with CC(C)Oc1ccc2c(c1)nnn2-c1ccc(CNS(N)(=O)=O)cc1F [Example 77, N-(3-fluoro-4-(5-isopropoxy-1H-benzo[d][1,2,3]triazol-1-yl)benzyl)sulfamide], NS(=O)(=O)NCc1ccc(-n2nnc3cc(OC(F)F)ccc32)c(F)c1 [Example 91] is lower in IC50: greater than 10 µM for the first, less than 1 µM for the second. The second is the more potent here.

COc1ccc2c(c1)nnn2-c1ccc(CNS(N)(=O)=O)cn1 [Example 79, (N-(6-(5-methoxy-1H-benzo[d][1,2,3]triazol-1-yl)pyridin-3-yl)methyl)sulfamide] and NS(=O)(=O)NCc1ccc(-n2nnc3cc(OCF)ccc32)c(F)c1 [Example 88] cannot be ordered by IC50: greater than 10 µM for the first, greater than 10 µM for the second.

COc1ccc2c(c1)nnn2-c1ccc(CN(C)S(N)(=O)=O)cc1 [Example 80] and COc1ccc2c(c1)nnn2-c1ccc(CN(C2CC2)S(N)(=O)=O)cc1 [Example 82, N-cyclopropyl-N-(4-(5-methoxy-1H-benzo[d][1,2,3]triazol-1-yl)benzyl)sulfamide] cannot be ordered by IC50: less than 1 µM for the first, less than 1 µM for the second.

Compared with COc1ccc2c(c1)nnn2-c1ccc(CN(C)S(N)(=O)=O)cc1F [Example 81, N-(3-fluoro-4-(5-methoxy-1H-benzo[d][1,2,3]triazol-1-yl)benzyl)-N-methylsulfamide], NS(=O)(=O)NCc1ccc(-n2nnc3cc(OC(F)(F)F)ccc32)c(F)c1 [Example 90] is higher in IC50: less than 1 µM for the first, greater than 10 µM for the second.

First: COc1ccc2c(c1)nnn2-c1ccc([C@H](C)NS(N)(=O)=O)cc1 [Example 83, (S)—N-(1-(4-(5-methoxy-1H-benzo[d][1,2,3]triazol-1-yl)phenyl)ethyl)sulfamide]
Second: NS(=O)(=O)NCc1ccc(-n2nnc3cc(OC(F)(F)F)ccc32)cc1 [Example 89]
The IC50 of the first is lower: less than 1 µM for the first, greater than 10 µM for the second.

NS(=O)(=O)NCc1ccc(-n2nnc3cc(C(F)(F)F)ccc32)cc1 [Example 84] and NS(=O)(=O)NCc1ccc(-n2nnc3cc(C(F)(F)F)ccc32)c(F)c1 [Example 85] cannot be ordered by IC50: greater than 10 µM for the first, greater than 10 µM for the second.

With COc1cc2nnn(-c3ccc(CNS(N)(=O)=O)cc3)c2cc1F [Example 92, N-(4-(6-fluoro-5-methoxy-1H-benzo[d][1,2,3]triazol-1-yl)benzyl)sulfamide] the IC50 was less than 1 µM.
